Counter-ions that a name gives are not always drawn. Like-named read-outs stand apart in the source and are kept apart here.

The values that follow come from patent US4259257A, “1-Phenyl-2-amino-1,3-propanediol-N-aryloxyalkyl derivatives” (Egyt Gyogyszervegyeszeti Gyar, priority 1977, dated 1981).

One data set relates to N. ischiadicus of rats. Briefly: Local anaesthetic activity by the method of Truant and d'Amato. The data set is classed as in vivo. To be noted: for Local anaesthetic activity EC50: N. ischiadicus of rats, motor-paralysis; for Local anaesthetic activity, relative efficiency: related to Lidocaine (1.0). The protocol: The local anaesthetic activity was tested by the method of Truant and d'Amato (Truant, A. P. and Wiedling, S., Acta Chirurg. Scand. 116, 351/1958) on the N. ischiadicus of rats. The number of the animals showing the signs of characteristic motor-paralysis was recorded. As a control compound Lidocaine was used. This test can be carried out with water-soluble substances only.

Data set [1] is described as follows: Acute oral toxicity on mice (CFLP strain), 96 h observation. To be noted: mouse, in vivo. The protocol:
Toxicity (per os) has been determined on mice (CFLP strain) of both sexes weighing about 20 to 25 g. each, 10 mice were used for each doses and the time of observation was 96 hours.

The subject of another data set is isolated rat ileums. Briefly: Smooth muscle relaxing activity by the method of Brock et al. on isolated rat ileums. To be noted: for Smooth muscle relaxant activity EC50: isolated rat ileums; for Smooth muscle relaxant activity, relative efficiency: related to Papaverine (1.0). From the text:
For the determination of smooth muscle relaxing activity the method of Brock et al. (Brock, N, et al., Arch. Exper. Pathol. u. Pharmacol., 215, 492/1952/) was used on isolated rat ileums. Papaverine was used as reference compound. In Table 4 below the EC50 -values and the relative efficiencies calculated on the basis of the following equation are also listed: [formula]

Data set [2] deals with coronary insufficiency induced with glanduitrine in male rats (CFY strain). Briefly: Anti-anginose activity by the method of Nieschulz, coronary insufficiency induced with glanduitrine. It is filed as in vivo. To be noted: for Relative efficiency (relative anti-anginose activity): inhibition caused by Prenilamine=1; for Anti-anginose effect (inhibition %): rats, test dose 10.0 mg./kg. (compound 1), 2.0 mg./kg. (2, 3, Prenilamine), 4.0 mg./kg. (5, Lidocaine). The protocol: Anti-anginose activity of the compounds according to the invention was tested on male rats from the CFY strain by the method of Nieschulz (Nieschulz, E. et al., Arzneimittelforschung, 5, 680/1955/). The rats weighed about 180 to 220 g. each and were narcotized prior to treatment. Electrocardiograms were registered by means of a NEK-2 ECG-instrument using a standard II output. The coronary insufficiency was induced with a 4 IE/kg. i.v. dose of glanduitrine. Prenilamine was used as a reference compound.
The acute intravenous toxicity was determined on rats of both sexes, using five animals for each doses. The relative anti-anginose activity was calculated on the basis of the following equation: [formula] Test results are shown in Table 3 below (inhibition caused by Prenilamine=1).

Another data set can be described thus: in vivo. To be noted: rat, iv, read-out: LD50-value (acute intravenous toxicity). Here is the method: The acute intravenous toxicity was determined on rats of both sexes, using five animals for each doses. The relative anti-anginose activity was calculated on the basis of the following equation: [formula]

Take `CC(COc1ccccc1)N[C@@H](CO)[C@@H](O)c1ccccc1` (relative stereo) [Compound 2, Threo + allothreo-1-phenyl-2-phenoxy-isopropylamino-1,3-propanediol fumarate]: in the data set on N. ischiadicus of rats, the “Local anaesthetic activity EC50” value was 0.12 µg/mL and the “Local anaesthetic activity, relative efficiency” value is given as 1.58. Further, the LD50 (in general, the dose at which mortality reaches 50%) at 96 h in data set [1] stood at 200 mg/kg. Also, in the data set with isolated rat ileums, the “Smooth muscle relaxant activity EC50” value was found to be 17.57 µg/mL and the “Smooth muscle relaxant activity, relative efficiency” value is recorded as 0.50. Further, in data set [2], the “Relative efficiency (relative anti-anginose activity)” value is given as 1.3 and the “Anti-anginose effect (inhibition %)” value is listed as 56%. In addition, the LD50 in “in vivo” worked out at 11 mg/kg.

Regarding `CC(COc1ccccc1)N[C@@H](CO)[C@@H](O)c1ccccc1` (single isomer, unassigned; (+)) [Compound 3, (+) (Threo + allothreo)-1-phenyl-2-phenoxy-isopropylamino-1,3-propanediol fumarate], in the data set with N. ischiadicus of rats, the “Local anaesthetic activity EC50” value is 0.20 µg/mL and the “Local anaesthetic activity, relative efficiency” value amounted to 0.95. The compound further displayed an LD50 at 96 h in data set [1] of 350 mg/kg. Also, in the data set on isolated rat ileums, the “Smooth muscle relaxant activity EC50” value was 8.50 µg/mL and the “Smooth muscle relaxant activity, relative efficiency” value was found to be 1.03. In data set [2], the “Relative efficiency (relative anti-anginose activity)” value came to 3.0 and the “Anti-anginose effect (inhibition %)” value is reported as 67%. The LD50 in “in vivo” came out at 21.5 mg/kg.

As for `CC(COc1ccccc1)N[C@H](CO)[C@H](O)c1ccccc1` (single isomer, unassigned; (-)) [Compound 4, (-) (Threo + allothreo)-1-phenyl-2-phenoxy-isopropylamino-1,3-propanediol fumarate], in the data set with N. ischiadicus of rats, the “Local anaesthetic activity EC50” value turned out to be 0.28 µg/mL and the “Local anaesthetic activity, relative efficiency” value is listed as 0.68. This compound also came in with an LD50 at 96 h in data set [1] of 275 mg/kg. For the same compound, in the data set with isolated rat ileums, the “Smooth muscle relaxant activity EC50” value amounted to 10.78 µg/mL and the “Smooth muscle relaxant activity, relative efficiency” value is reported as 0.80.

In data set [1], `CC(C)N[C@@H](CO)[C@@H](O)c1ccccc1` [Compound 1, L (+) threo-1-phenyl-2-isopropylamino-1,3-propanediol] had a median lethal dose (LD50) at 96 h of 710 mg/kg. Also, in data set [2], the “Relative efficiency (relative anti-anginose activity)” value is 3.0 and the “Anti-anginose effect (inhibition %)” value is given as 50%. Moreover, in the data set “in vivo”, the LD50 came to 140 mg/kg.

For `CC(COc1ccccc1)N[C@@H](CO)[C@H](O)c1ccccc1` (stereo partly drawn) [Compound 5, Erythro+alloerythro-1-phenyl-2-phenoxyisopropylamino-1,3-propanediol fumarate], the LD50 at 96 h in data set [1] was 2000 mg/kg. For the same compound, in data set [2], the “Relative efficiency (relative anti-anginose activity)” value is given as 3.0 and the “Anti-anginose effect (inhibition %)” value worked out at 64%. Besides, in the data set “in vivo”, the LD50 was found to be 45 mg/kg.

Take `CCN(CC)CC(=O)Nc1c(C)cccc1C` [Lidocaine, reference compound]: the “Local anaesthetic activity EC50” value in the data set on N. ischiadicus of rats was found to be 0.19 µg/mL. For the same compound, the “Anti-anginose effect (inhibition %)” value in data set [2] worked out at 39%.

`COc1ccc(Cc2nccc3cc(OC)c(OC)cc23)cc1OC` [Papaverine, reference compound]: in the data set on isolated rat ileums, the “Smooth muscle relaxant activity EC50” value stood at 8.78 µg/mL and the “Smooth muscle relaxant activity, relative efficiency” value is recorded as 1.0.

For `CC(Cc1ccccc1)NCCC(c1ccccc1)c1ccccc1` (stereo not drawn) [Prenilamine, 3,3-diphenylpropyl-1-methylphenethylamine, reference compound], in data set [2], the “Relative efficiency (relative anti-anginose activity)” value is reported as 1.0 and the “Anti-anginose effect (inhibition %)” value stood at 41%. Further, the LD50 in the data set “in vivo” (rats, i.v.) came out at 11.5 mg/kg.
